From the supplement of paper PMC10307832

What was measured:
Test in all cases: relative viability (nuclei count vs DMSO), 5 days (fraction); higher = more cells survive
201T = tested on: 201T
Procedure, shortened: (§1)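 A single step with final 0.05% Triton X-100, 1% formaldehyde and 1 ug/ml Hoechst fixed the cells and stained nuclei 5 days after treatment. Lung cancer cell lines in 1536-well plates had been treated by pin tool the day after seeding with one drug alone or a fixed anchor-drug dose plus five library-drug doses (not always all listed) in √10 steps, and nuclei were counted on 4× images. Relative viability is the ratio of nuclei in treated wells to nuclei in vehicle wells, taken as the median of duplicate plates.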

BEN = tested on: BEN
Procedure, shortened: as §1

EPLC-272H = tested on: EPLC-272H
Procedure, shortened: as §1

HCC-15 = tested on: HCC-15
Procedure, shortened: as §1

HCC-78 = tested on: HCC-78
Procedure, shortened: as §1

LCLC-97TM1 = tested on: LCLC-97TM1
Procedure, shortened: as §1

LU99A = tested on: LU99A
Procedure, shortened: as §1

NCI-H1355 = tested on: NCI-H1355
Procedure, shortened: as §1

NCI-H1395 = tested on: NCI-H1395
Procedure, shortened: as §1

NCI-H2009 = tested on: NCI-H2009
Procedure, shortened: as §1

NCI-H2085 = tested on: NCI-H2085
Procedure, shortened: as §1

NCI-H2126 = tested on: NCI-H2126
Procedure, shortened: as §1

NCI-H2228 = tested on: NCI-H2228
Procedure, shortened: as §1

NCI-H2342 = tested on: NCI-H2342
Procedure, shortened: as §1

NCI-H23 = tested on: NCI-H23
Procedure, shortened: as §1

NCI-H2405 = tested on: NCI-H2405
Procedure, shortened: as §1

NCI-H322M = tested on: NCI-H322M
Procedure, shortened: as §1

NCI-H460 = tested on: NCI-H460
Procedure, shortened: as §1

NCI-H647 = tested on: NCI-H647
Procedure, shortened: as §1

NCI-H650 = tested on: NCI-H650
Procedure, shortened: as §1

NCI-H661 = tested on: NCI-H661
Procedure, shortened: as §1

NCI-H838 = tested on: NCI-H838
Procedure, shortened: as §1

PC-14 = tested on: PC-14
Procedure, shortened: as §1

Structure (SMILES): CCNC(=O)c1noc(-c2cc(C(C)C)c(O)cc2O)c1-c1ccc(CN2CCOCC2)cc1 [Luminespib] + CC(=O)c1c(C)c2cnc(Nc3ccc(N4CCNCC4)cn3)nc2n(C2CCCC2)c1=O [Palbociclib] (partner 0.5 µM)
- relative viability (201T; first compound 0.002 µM): 0.363
- relative viability (201T; first compound 0.006325 µM): 0.366
- relative viability (201T; first compound 0.02 µM): 0.309
- relative viability (201T; first compound 0.06325 µM): 0.352
- relative viability (201T; first compound 0.2 µM): 0.356
- relative viability (BEN; first compound 0.002 µM): 0.472
- relative viability (BEN; first compound 0.006325 µM): 0.468
- relative viability (BEN; first compound 0.02 µM): 0.438
- relative viability (BEN; first compound 0.06325 µM): 0.409
- relative viability (BEN; first compound 0.2 µM): 0.323
- relative viability (EPLC-272H; first compound 0.002 µM): 0.285
- relative viability (EPLC-272H; first compound 0.006325 µM): 0.317
- relative viability (EPLC-272H; first compound 0.02 µM): 0.284
- relative viability (EPLC-272H; first compound 0.06325 µM): 0.311
- relative viability (EPLC-272H; first compound 0.2 µM): 0.0905
- relative viability (HCC-15; first compound 0.002 µM): 0.815
- relative viability (HCC-15; first compound 0.006325 µM): 0.776
- relative viability (HCC-15; first compound 0.02 µM): 0.875
- relative viability (HCC-15; first compound 0.06325 µM): 0.321
- relative viability (HCC-15; first compound 0.2 µM): 0.127
- relative viability (HCC-78; first compound 0.002 µM): 0.461
- relative viability (HCC-78; first compound 0.02 µM): 0.467
- relative viability (HCC-78; first compound 0.06325 µM): 0.51
- relative viability (HCC-78; first compound 0.2 µM): 0.427
- relative viability (LCLC-97TM1; first compound 0.002 µM): 0.214
- relative viability (LCLC-97TM1; first compound 0.006325 µM): 0.227
- relative viability (LCLC-97TM1; first compound 0.06325 µM): 0.248
- relative viability (LCLC-97TM1; first compound 0.2 µM): 0.205
- relative viability (LU99A; first compound 0.002 µM): 0.369
- relative viability (LU99A; first compound 0.006325 µM): 0.379
- relative viability (LU99A; first compound 0.02 µM): 0.272
- relative viability (LU99A; first compound 0.06325 µM): 0.428
- relative viability (LU99A; first compound 0.2 µM): 0.417
- relative viability (NCI-H1355; first compound 0.002 µM): 0.415
- relative viability (NCI-H1355; first compound 0.006325 µM): 0.383
- relative viability (NCI-H1355; first compound 0.02 µM): 0.257
- relative viability (NCI-H1355; first compound 0.06325 µM): 0.367
- relative viability (NCI-H1355; first compound 0.2 µM): 0.222
- relative viability (NCI-H1395; first compound 0.002 µM): 0.645
- relative viability (NCI-H1395; first compound 0.006325 µM): 0.631
- relative viability (NCI-H1395; first compound 0.02 µM): 0.498
- relative viability (NCI-H1395; first compound 0.06325 µM): 0.338
- relative viability (NCI-H1395; first compound 0.2 µM): 0.344
- relative viability (NCI-H2009; first compound 0.002 µM): 0.287
- relative viability (NCI-H2009; first compound 0.006325 µM): 0.172
- relative viability (NCI-H2009; first compound 0.02 µM): 0.113
- relative viability (NCI-H2009; first compound 0.06325 µM): 0.0496
- relative viability (NCI-H2009; first compound 0.2 µM): 0.0514
- relative viability (NCI-H2085; first compound 0.002 µM): 0.447
- relative viability (NCI-H2085; first compound 0.006325 µM): 0.434
- relative viability (NCI-H2085; first compound 0.02 µM): 0.453
- relative viability (NCI-H2085; first compound 0.06325 µM): 0.388
- relative viability (NCI-H2085; first compound 0.2 µM): 0.263
- relative viability (NCI-H2126; first compound 0.002 µM): 0.337
- relative viability (NCI-H2126; first compound 0.006325 µM): 0.325
- relative viability (NCI-H2126; first compound 0.06325 µM): 0.351
- relative viability (NCI-H2126; first compound 0.2 µM): 0.393
- relative viability (NCI-H2228; first compound 0.002 µM): 0.752
- relative viability (NCI-H2228; first compound 0.006325 µM): 0.616
- relative viability (NCI-H2228; first compound 0.02 µM): 0.121
- relative viability (NCI-H2228; first compound 0.06325 µM): 0.119
- relative viability (NCI-H2228; first compound 0.2 µM): 0.104
- relative viability (NCI-H2342; first compound 0.002 µM): 0.527
- relative viability (NCI-H2342; first compound 0.006325 µM): 0.527
- relative viability (NCI-H2342; first compound 0.02 µM): 0.438
- relative viability (NCI-H2342; first compound 0.06325 µM): 0.526
- relative viability (NCI-H2342; first compound 0.2 µM): 0.409
- relative viability (NCI-H23; first compound 0.002 µM): 0.567
- relative viability (NCI-H23; first compound 0.006325 µM): 0.582
- relative viability (NCI-H23; first compound 0.02 µM): 0.376
- relative viability (NCI-H23; first compound 0.06325 µM): 0.154
- relative viability (NCI-H23; first compound 0.2 µM): 0.14
- relative viability (NCI-H2405; first compound 0.002 µM): 0.557
- relative viability (NCI-H2405; first compound 0.02 µM): 0.417
- relative viability (NCI-H2405; first compound 0.06325 µM): 0.172
- relative viability (NCI-H2405; first compound 0.2 µM): 0.164
- relative viability (NCI-H322M; first compound 0.002 µM): 0.406
- relative viability (NCI-H322M; first compound 0.006325 µM): 0.471
- relative viability (NCI-H322M; first compound 0.02 µM): 0.448
- relative viability (NCI-H322M; first compound 0.06325 µM): 0.427
- relative viability (NCI-H322M; first compound 0.2 µM): 0.382
- relative viability (NCI-H460; first compound 0.002 µM): 0.288
- relative viability (NCI-H460; first compound 0.006325 µM): 0.126
- relative viability (NCI-H460; first compound 0.02 µM): 0.0359
- relative viability (NCI-H460; first compound 0.06325 µM): 0.0096
- relative viability (NCI-H460; first compound 0.2 µM): 0.0106
- relative viability (NCI-H647; first compound 0.002 µM): 0.442
- relative viability (NCI-H647; first compound 0.006325 µM): 0.396
- relative viability (NCI-H647; first compound 0.02 µM): 0.207
- relative viability (NCI-H647; first compound 0.06325 µM): 0.0721
- relative viability (NCI-H647; first compound 0.2 µM): 0.0558
- relative viability (NCI-H650; first compound 0.002 µM): 0.39
- relative viability (NCI-H650; first compound 0.006325 µM): 0.283
- relative viability (NCI-H650; first compound 0.02 µM): 0.277
- relative viability (NCI-H650; first compound 0.06325 µM): 0.181
- relative viability (NCI-H650; first compound 0.2 µM): 0.0632
- relative viability (NCI-H661; first compound 0.002 µM): 0.427
- relative viability (NCI-H661; first compound 0.006325 µM): 0.396
- relative viability (NCI-H661; first compound 0.02 µM): 0.315
- relative viability (NCI-H661; first compound 0.06325 µM): 0.309
- relative viability (NCI-H661; first compound 0.2 µM): 0.322
- relative viability (NCI-H838; first compound 0.002 µM): 0.233
- relative viability (NCI-H838; first compound 0.006325 µM): 0.252
- relative viability (NCI-H838; first compound 0.02 µM): 0.16
- relative viability (NCI-H838; first compound 0.06325 µM): 0.14
- relative viability (NCI-H838; first compound 0.2 µM): 0.105
- relative viability (PC-14; first compound 0.002 µM): 0.541
- relative viability (PC-14; first compound 0.006325 µM): 0.367
- relative viability (PC-14; first compound 0.02 µM): 0.315
- relative viability (PC-14; first compound 0.06325 µM): 0.0535
- relative viability (PC-14; first compound 0.2 µM): 0.0542
